Holding throughout (format): cell-based
In assay [1] the test system is Cephalothinsensitive E. coli, Kl. pneumoniae and Pr. mirabilis. Nature of the assay: MIC, two-fold serial agar dilution in Mueller-Hinton agar, group (G-)-Ia. The conditions noted are these: read-out: Geometric Mean of MIC. As to the method:
(§1) In the primary evaluation of the compounds of this invention, the Minimum Inhibitory Concentrations (MIC's) of the compounds were determined by the two-fold serial agar dilution method in Mueller-Hinton agar against 32 strains of test organisms in six groups.
(G-)Ia: Cephalothinsensitive E. coli (2 strains), Kl. pneumoniae (1
strain) and Pr. mirabilis (2 strains)
Background: In agar dilution, organisms are placed on agar that contains the substance at set levels.

Assay [2] concerns Penicillinsensitive S. aureus. Nature of the assay: MIC, two-fold serial agar dilution in Mueller-Hinton agar, group (G+)-Ia. The conditions noted are these: Staphylococcus aureus, read-out: Geometric Mean of MIC. As to the method: as §1
The subject of assay [3] is Cephalothinresistant E. coli and Kl. pneumoniae. Nature of the assay: MIC, two-fold serial agar dilution in Mueller-Hinton agar, group (G-)-Ib. As to conditions: read-out: Geometric Mean of MIC. As to the method: as §1
(G-)Ib: Cephalothinresistant E. coli (3 strains) and Kl. pneumoniae (3

The test system of assay [4] is Ps. aeruginosa. Nature of the assay: MIC, two-fold serial agar dilution in Mueller-Hinton agar, group (G-)-III. As to conditions: Pseudomonas aeruginosa, Ps. aeruginosa (6 strains), read-out: Geometric Mean of MIC. As to the method:
as §1

Assay [5] has as its system M. morganii, Ent. cloacae and Ser. marcescens. The experiment in a line: MIC, two-fold serial agar dilution in Mueller-Hinton agar, group (G-)-II. The conditions noted are these: read-out: Geometric Mean of MIC. As to the method:
as §1
(G-)II: M. morganii (1 strain), Ent. cloacae (2 strains) and Ser.

Assay [6] relates to Penicillinresistant S. aureus. The experiment in a line: MIC, two-fold serial agar dilution in Mueller-Hinton agar, group (G+)-Ib. As to conditions: Staphylococcus aureus, read-out: Geometric Mean of MIC. As to the method:
as §1
(G+)Ib: Penicillinresistant S. aureus (5 strains)

[7] abbreviates: (G-)-Ia, cephalothin-sensitive E. coli (2), Kl. pneumoniae (1), Pr. mirabilis (2 strains).
Setting [8] is: (G+)-Ia, penicillin-sensitive S. aureus (5 strains).
Where [9] appears, read: (G-)-II, M. morganii (1), Ent. cloacae (2), Ser. marcescens (2 strains).
[10] abbreviates: (G+)-Ib, penicillin-resistant S. aureus (5 strains).

In brackets after ≈: the same amount, converted by molar mass. Read-outs that look alike come from different tables or passages of the source.

Turning to `CSc1scc(C)[n+]1CC1=C(C(=O)[O-])N2C(=O)C(NC(=O)/C(=N\OC(C)(C)C(=O)O)c3csc(N)n3)[C@H]2SC1` (stereo partly drawn) [Example 16, 7-[(Z)-2-(2-Aminothiazol-4-yl)-2-(2-carboxyprop-2-oxyimino)acetamido]-3-(4-methyl-2-methylthiothiazolio)methyl-3-cephem-4-carboxylate], the MIC (in general, the lowest concentration that inhibits growth of the organism) in assay [1] (setting [7]) amounted to 0.1 µg/mL (≈ 0.163 µM); in assay [2] (setting [8]), 4.2 µg/mL (≈ 6.85 µM); in assay [3], 0.79 µg/mL (≈ 1.29 µM); in assay [4], 2.8 µg/mL (≈ 4.57 µM); in assay [5] (setting [9]), 0.53 µg/mL (≈ 0.865 µM); in assay [6] (setting [10]), 19 µg/mL (≈ 31 µM).
With `CC(C)(O/N=C(\C(=O)NC1C(=O)N2C(C(=O)[O-])=C(C[n+]3ccsc3NC=O)CS[C@H]12)c1csc(N)n1)C(=O)O` (stereo partly drawn) [Example 14, 7-[2-(Z)-(2-Aminothiazol-4-yl)-2-(2-carboxyprop-2-yloxyimino)acetamido]-3-(2-formylaminothiazolio)methyl-3-cephem-4-carboxylate], the MIC in assay [1] (setting [7]) was 0.15 µg/mL (≈ 0.252 µM); in assay [2] (setting [8]) it was 5.5 µg/mL (≈ 9.23 µM); in assay [3], 3.6 µg/mL (≈ 6.04 µM); in assay [4] it was 7 µg/mL (≈ 11.8 µM); in assay [5] (setting [9]), 3.2 µg/mL (≈ 5.37 µM); in assay [6] (setting [10]), 12.5 µg/mL (≈ 21 µM).
Take `Cc1scc[n+]1CC1=C(C(=O)[O-])N2C(=O)C(NC(=O)/C(=N\OC3(C(=O)O)CCC3)c3csc(N)n3)[C@H]2SC1` (stereo partly drawn) [Example 11, 7-[(Z)-2-(2-Aminothiazol-4-yl)-2-(1-carboxycyclobut-1-oxyimino)acetamido]-3-(2-methylthiazolio)methyl-3-cephem-4-carboxylate]: the MIC in assay [1] (setting [7]) is 0.076 µg/mL (≈ 0.131 µM); in assay [2] (setting [8]) it was 4.2 µg/mL (≈ 7.26 µM); in assay [3], 1.6 µg/mL (≈ 2.77 µM); in assay [4] it was 2.1 µg/mL (≈ 3.63 µM); in assay [5] (setting [9]), 0.4 µg/mL (≈ 0.691 µM); in assay [6] (setting [10]), 9.5 µg/mL (≈ 16.4 µM).
In the case of `Cc1c(CCO)sc[n+]1CC1=C(C(=O)[O-])N2C(=O)C(NC(=O)/C(=N\OC(C)(C)C(=O)O)c3csc(N)n3)C2SC1` (stereo not drawn) [Example 6, 7-[(Z)-2-(2-Aminothiazol-4-yl)-2-(2-carboxyprop-2-oxyimino)acetamido]-3-[5-(2-hydroxyethyl)-4-methylthiazolio]methyl-3-cephem-4-carboxylate], the MIC stood at 0.076 µg/mL (≈ 0.124 µM) in assay [1] (setting [7]); 8.3 µg/mL (≈ 13.6 µM) in assay [2] (setting [8]); 1.8 µg/mL (≈ 2.95 µM) in assay [3]; 4.4 µg/mL (≈ 7.2 µM) in assay [4]; 2.8 µg/mL (≈ 4.58 µM) in assay [5] (setting [9]); 25 µg/mL (≈ 40.9 µM) in assay [6] (setting [10]).
Consider `COc1sc[n+](CC2=C(C(=O)[O-])N3C(=O)C(NC(=O)/C(=N\OC(C)(C)C(=O)O)c4csc(N)n4)C3SC2)c1C` (stereo not drawn) [Example 9, 7-[(Z)-2-(2-Aminothiazol-4-yl)-2-(2-carboxyprop-2-oxyimino)acetamido]-3-(5-methoxy-4-methylthiazolio)methyl-3-cephem-4-carboxylate], for which the MIC in assay [1] (setting [7]) stood at 0.1 µg/mL (≈ 0.168 µM); in assay [2] (setting [8]), 9.5 µg/mL (≈ 15.9 µM); in assay [3] it was 1.6 µg/mL (≈ 2.68 µM); in assay [4], 6.3 µg/mL (≈ 10.6 µM); in assay [5] (setting [9]), 2.8 µg/mL (≈ 4.69 µM); in assay [6], 16 µg/mL (≈ 26.8 µM).
As to `CC(C)(O/N=C(\C(=O)NC1C(=O)N2C(C(=O)[O-])=C(C[n+]3ccsc3)CSC12)c1csc(N)n1)C(=O)O` (stereo not drawn) [Example 5, 7-[(Z)-2-(2-Aminothiazol-4-yl)-2-(2-carboxyprop-2-oxyimino)acetamido]-3-thiazoliomethyl-3-cephem-4-carboxylate], the MIC is 0.13 µg/mL (≈ 0.235 µM) in assay [1] (setting [7]); 8.3 µg/mL (≈ 15 µM) in assay [2] (setting [8]); 2.5 µg/mL (≈ 4.52 µM) in assay [3]; 3.1 µg/mL (≈ 5.61 µM) in assay [4]; 3.6 µg/mL (≈ 6.51 µM) in assay [5]; 25 µg/mL (≈ 45.2 µM) in assay [6] (setting [10]).
With `CC(C)(O/N=C(\C(=O)NC1C(=O)N2C(C(=O)[O-])=C(C[n+]3ccsc3SCC(=O)O)CS[C@H]12)c1csc(N)n1)C(=O)O` (stereo partly drawn) [Example 13, 7-[(Z)-2-(2-Aminothiazol-4-yl)-2-(2-carboxyprop-2-oxyimino)acetamido]-3-(2-carboxymethylthiothiazolio)methyl-3-cephem-4-carboxylate], the MIC was 0.26 µg/mL (≈ 0.405 µM) in assay [1] (setting [7]); 25 µg/mL (≈ 38.9 µM) in assay [2] (setting [8]); 4 µg/mL (≈ 6.22 µM) in assay [3]; 23 µg/mL (≈ 35.8 µM) in assay [4]; 1.6 µg/mL (≈ 2.49 µM) in assay [5] (setting [9]); 50 µg/mL (≈ 77.8 µM) in assay [6] (setting [10]).
`CNc1scc[n+]1CC1=C(C(=O)[O-])N2C(=O)C(NC(=O)/C(=N\OC(C)(C)C(=O)O)c3csc(N)n3)[C@H]2SC1` (stereo partly drawn) [Example 15, 7-[(Z)-2-(2-Aminothiazol-4-yl)-2-(2-carboxyprop-2-oxyimino)acetamido]-3-(2-methylaminothiazolio)methyl-3-cephem-4-carboxylate]: the MIC was 0.4 µg/mL (≈ 0.688 µM) in assay [1] (setting [7]); 7.2 µg/mL (≈ 12.4 µM) in assay [2] (setting [8]); 5.5 µg/mL (≈ 9.46 µM) in assay [3]; 13 µg/mL (≈ 22.3 µM) in assay [4]; 3.6 µg/mL (≈ 6.19 µM) in assay [5]; 25 µg/mL (≈ 43 µM) in assay [6] (setting [10]).
As for `CCSc1scc[n+]1CC1=C(C(=O)[O-])N2C(=O)C(NC(=O)/C(=N\OC3(C(=O)O)CCC3)c3csc(N)n3)[C@H]2SC1` (stereo partly drawn) [Example 12, 7-[(Z)-2-(2-Aminothiazol-4-yl)-2-(1-carboxycyclobut-1-oxyimino)acetamido]-3-(2-ethylthiothiazolio)methyl-3-cephem-4-carboxylate], the MIC in assay [1] (setting [7]) was 0.066 µg/mL (≈ 0.106 µM); in assay [2] (setting [8]), 1.8 µg/mL (≈ 2.88 µM); in assay [3], 0.79 µg/mL (≈ 1.26 µM); in assay [4] it was 5.7 µg/mL (≈ 9.12 µM); in assay [5] (setting [9]), 0.4 µg/mL (≈ 0.64 µM); in assay [6] (setting [10]), 4.7 µg/mL (≈ 7.52 µM).
Consider `CC(C)(O/N=C(\C(=O)NC1C(=O)N2C(C(=O)[O-])=C(C[n+]3ccsc3N)CS[C@H]12)c1csc(N)n1)C(=O)O` (stereo partly drawn) [Example 8, 7-[(Z)-2-(2-Aminothiazol-4-yl)-2-(2-carboxyprop-2-oxyimino)acetamido]-3-(2-amino-3-thiazolio)methyl-3-cephem-4-carboxylate], for which the MIC came to 0.15 µg/mL (≈ 0.264 µM) in assay [1] (setting [7]); 5.5 µg/mL (≈ 9.69 µM) in assay [2] (setting [8]); 4 µg/mL (≈ 7.05 µM) in assay [3]; 5.6 µg/mL (≈ 9.87 µM) in assay [4]; 8.3 µg/mL (≈ 14.6 µM) in assay [5] (setting [9]); 14 µg/mL (≈ 24.7 µM) in assay [6] (setting [10]).
For `Cc1csc[n+]1CC1=C(C(=O)[O-])N2C(=O)C(NC(=O)/C(=N\OC(C)(C)C(=O)O)c3csc(N)n3)C2SC1` (stereo not drawn) [Example 7, 7-[(Z)-2-(2-Aminothiazol-4-yl)-2-(2-carboxyprop-2-oxyimino)acetamido]-3-(4-methylthiazolio)methyl-3-cephem-4-carboxylate], the MIC in assay [1] (setting [7]) came out at 0.076 µg/mL (≈ 0.134 µM); in assay [2] (setting [8]) it was 7.2 µg/mL (≈ 12.7 µM); in assay [3], 1.8 µg/mL (≈ 3.18 µM); in assay [4] it was 4 µg/mL (≈ 7.06 µM); in assay [5] (setting [9]), 2.8 µg/mL (≈ 4.94 µM); in assay [6] (setting [10]), 12.5 µg/mL (≈ 22.1 µM).
As for `C#CCO/N=C(\C(=O)NC1C(=O)N2C(C(=O)[O-])=C(C[n+]3ccsc3SC)CS[C@H]12)c1csc(N)n1` (stereo partly drawn) [Example 17, 7-[(Z)-2-(2-Aminothiazol-4-yl)-2-propargyloxyiminoacetamido]-3-(2-methylthiothiazolio)methyl-3-cephem-4-carboxylate], the MIC stood at 0.66 µg/mL (≈ 1.2 µM) in assay [1]; 0.23 µg/mL (≈ 0.418 µM) in assay [2]; 0.6 µg/mL (≈ 1.09 µM) in assay [3]; 6.9 µg/mL (≈ 12.5 µM) in assay [4]; 0.69 µg/mL (≈ 1.25 µM) in assay [5]; 0.8 µg/mL (≈ 1.45 µM) in assay [6].
Take `CO/N=C(\C(=O)NC1C(=O)N2C(C(=O)[O-])=C(C[n+]3csc(CCN)c3C)CSC12)c1csc(N)n1` (stereo not drawn) [Example 10, 7-[(Z)-2-(2-Aminothiazol-4-yl)-2-methoxyiminoacetamido]-3-[5-(2-aminoethyl)-4-methylthiazolio]methyl-3-cephem-4-carboxylate]: the MIC in assay [1] (setting [7]) is 0.8 µg/mL (≈ 1.49 µM); in assay [2] (setting [8]), 2.1 µg/mL (≈ 3.91 µM); in assay [3], 1.4 µg/mL (≈ 2.6 µM); in assay [4], 22 µg/mL (≈ 40.9 µM); in assay [5], 5.5 µg/mL (≈ 10.2 µM); in assay [6] (setting [10]), 6.3 µg/mL (≈ 11.7 µM).
